Test results from ChEMBL document CHEMBL5244216, “Pyrrole: An insight into recent pharmacological advances with structure activity relationship” (Eur J Med Chem, 2018).

System: Mycobacterium tuberculosis
Assay: Antitubercular activity against Multidrug-resistant Mycobacterium tuberculosis H37Rv assessed as reduction in microbial growth by broth dilution method
Format: functional

CCOc1cc(C2OC(c3ccc(-n4cccc4)cc3)=NN2C(C)=O)ccc1O (stereo not given)
MIC: 0.2 µg/mL

Cc1ccc(C)n1-c1ccc(C(=O)n2[nH]c(=O)c3ccccc3c2=O)cc1
MIC: 0.4 µg/mL

CC[C@@H](CO)NCCN[C@@H](CC)CO [ETHAMBUTOL]
MIC: 12.5 µg/mL

NNC(=O)c1ccncc1 [ISONIAZID]
MIC: 12.5 µg/mL

CO[C@H]1/C=C/O[C@@]2(C)Oc3c(C)c(O)c4c(O)c(c(/C=N/N5CCN(C)CC5)c(O)c4c3C2=O)NC(=O)/C(C)=C\C=C\[C@H](C)[C@H](O)[C@@H](C)[C@@H](O)[C@@H](C)[C@H](OC(C)=O)[C@@H]1C [RIFAMPIN]
MIC: 25 µg/mL
